Data as given in paper PMC5248971 (Science signaling, 2016).

Target: T1, OpuCA (Staphylococcus aureus, UniProt A0A0H2XHM3)
T1 sequence (A0A0H2XHM3 1-408): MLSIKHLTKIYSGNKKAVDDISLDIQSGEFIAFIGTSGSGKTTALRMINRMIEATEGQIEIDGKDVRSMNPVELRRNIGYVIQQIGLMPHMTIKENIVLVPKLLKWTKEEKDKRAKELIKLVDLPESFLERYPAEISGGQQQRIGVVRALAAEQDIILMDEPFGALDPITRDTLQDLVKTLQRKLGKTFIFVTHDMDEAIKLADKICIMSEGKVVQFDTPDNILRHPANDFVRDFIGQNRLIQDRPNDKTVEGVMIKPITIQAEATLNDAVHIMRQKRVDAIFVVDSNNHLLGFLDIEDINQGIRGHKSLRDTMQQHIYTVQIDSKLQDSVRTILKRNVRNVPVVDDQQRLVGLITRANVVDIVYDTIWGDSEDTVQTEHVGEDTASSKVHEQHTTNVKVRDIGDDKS
Type: binding

- Kd: 2460 ± 140 nM
SMILES: Nc1ncnc2c1ncn2[C@@H]1O[C@@H]2COP(=O)(O)O[C@H]3[C@@H](O)[C@H](n4cnc5c(N)ncnc54)O[C@@H]3COP(=O)(O)O[C@H]2[C@H]1O [c-di-AMP]
